Laboratory results from US10704079B2, “Methods for the detection of beta-lactamases in a sample” (priority 2007, dated 2020).
≈ marks a conversion by molar mass, not a printed value. Like-named read-outs stand apart in the source and are kept apart here.

Assays:
E. coli (ESCCOL) strains = test: MIC assays of CTX, CCX, CAZ, CCZ, microbroth dilution (CLSI); format: cell-based; settings: Escherichia coli
Procedure: (§1) MIC Assays of CTX (cefotaxime), […] (cefotaxime/clavulanic acid), CAZ (ceftazidime) and CCZ (ceftazidime/clavulanic acid) were performed by microbroth dilution method according to the CLSI (Clinical and Laboratory Standards Institute) standard.

[1] = test system: Klebsiella pneumoniae (KLEPNEP) strains; test: as above; format: cell-based
Procedure: as §1

E. coli strains [2] = test: Cefoxitin MIC assay, microbroth dilution (CLSI); format: cell-based
Procedure: Cefoxitin MIC Assay were performed by microbroth dilution method according to the CLSI (Clinical and Laboratory Standards Institute) standard.

[3] = test system: Klebsiella pneumoniae strains; test: Imipenem MIC assay, microbroth dilution (CLSI); format: cell-based; settings: for MIC: Klebsiella pneumoniae
Procedure: (§2) Imipenem MIC Assay was performed by microbroth dilution method according to the CLSI (Clinical and Laboratory Standards Institute) standard.
(§3) Imipenem MIC Assay were performed by microbroth dilution method according to the CLSI (Clinical and Laboratory Standards Institute) standard.

[4] = test system: Pseudomonas aeruginosa (PSEAER) strains; test: Imipenem MIC assay, microbroth dilution (CLSI); format: cell-based; settings: PSEAER strain 6 of Table 16 (MBL)
Procedure: as §3

E. coli strains [5] = test: Imipenem MIC assay, microbroth dilution (CLSI); format: cell-based; settings: Escherichia coli
Procedure: as §2

[6] = test system: Klebsiella oxytoca strains; test: Imipenem MIC assay, microbroth dilution (CLSI); format: cell-based
Procedure: as §2

[7] = test system: Klebsiella pneumoniae strains; test: Lysis testing on Phoenix panel, nitrocefin hydrolysis rate; format: cell-based; set-up: unit not given here; settings: without vs with lysis reagent
Procedure: (§4) Stock solutions with nitrocefin, trehalose, and/or reagents used to lyse the bacterial cells in pH6 MES buffer were prepared and dispensed into wells on the bottom part of Phoenix™ panel (BD, USA), with one stock solution in one well. Panels were then dried in an oven for approximately 30 min at approximately 70° C. The top part of Phoenix panel was then attached to the bottom part forming a panel system ready for inoculation. The concentrations of reagents after rehydration following Phoenix panel inoculation were 3 mg/ml lysozyme, 1 mM EDTA, and 1% trehalose in 0.1M pH6 MES buffer.
(§5) Representative strains of bacteria, such as E. coli and Klebsiella pneumoniae, were each streaked on a Trypticase™ Soy Agar with 5% Sheep Blood agar plate (BD, USA) and the plates were incubated at 35° C. for 18 hours. Afterwards, colonies from pure culture on each plate were inoculated into BD Phoenix ID broth (BD, USA) and adjusted to a desired turbidity of approximately 0.5 MacFarland. The bacterial cell suspension was then poured into the ID side of the Phoenix panels that were specifically made for cell lysis testing. Once inoculated, the panel was loaded into Phoenix instrument, where nitrocefin hydrolysis rate was monitored by colorimetric signals changes every 20 minutes for 16 hours.

E. coli strains [8] = test: as above; format: cell-based; set-up: unit not given here; settings: without vs with lysis reagent
Procedure: as §4, §5

ESBLs = test: Beta-lactamase inhibition at certain concentrations; format: biochemical
[9] = test system: original-spectrum beta-lactamases (OSBLs); test: as above; format: biochemical
class A beta-lactamases = test: as above; format: biochemical
class C beta-lactamases = test: as above; format: biochemical
[10] = ESCCOL strain 2 of Table 20 (ESBL), read-out: MIC
[11] = ESCCOL strain 3 of Table 20 (OSBL), read-out: MIC
[12] = ESCCOL strain 4 of Table 20 (OSBL), read-out: MIC
[13] = ESCCOL strain 5 of Table 20 (WT), read-out: MIC
[14] = KLEPNEP strain 7 of Table 20 (ESBL), read-out: MIC
[15] = KLEPNEP strain 8 of Table 20 (OSBL), read-out: MIC
[16] = KLEPNEP strain 9 of Table 20 (OSBL), read-out: MIC
[17] = KLEPNEP strain 10 of Table 20 (WT), read-out: MIC

For CO/N=C(\C(=O)N[C@@H]1C(=O)N2C(C(=O)O)=C(COC(C)=O)CS[C@H]12)c1csc(N)n1 [CTX, cefotaxime], the MIC (E. coli (ESCCOL) strains; ESCCOL strain 1 of Table 20 (ESBL), read-out: MIC) was 32 µg/mL (≈ 70.3 µM), the MIC (E. coli (ESCCOL) strains; [10]) was greater than 64 µg/mL and the MIC (E. coli (ESCCOL) strains; [11]) was no more than 0.25 µg/mL. The MIC (E. coli (ESCCOL) strains; [12]) was no more than 0.25 µg/mL, the MIC (E. coli (ESCCOL) strains; [13]) was no more than 0.25 µg/mL and the MIC ([1]; KLEPNEP strain 6 of Table 20 (ESBL), read-out: MIC) was greater than 64 µg/mL. It also gave an MIC [1, 14] greater than 64 µg/mL, an MIC [1, 15] of no more than 0.25 µg/mL and an MIC [1, 16] of no more than 0.25 µg/mL. It also gave an MIC [1, 17] of 0.5 µg/mL (≈ 1.1 µM).

Compound CC(C)(O/N=C(\C(=O)N[C@@H]1C(=O)N2C(C(=O)[O-])=C(C[n+]3ccccc3)CS[C@H]12)c1csc(N)n1)C(=O)O [CAZ, ceftazidime] has an MIC (E. coli (ESCCOL) strains) greater than 128 µg/mL, an MIC (E. coli (ESCCOL) strains; [10]) of 16 µg/mL (≈ 29.3 µM) and an MIC (E. coli (ESCCOL) strains; [11]) of no more than 0.25 µg/mL. For the same compound, the MIC (E. coli (ESCCOL) strains; [12]) was no more than 0.25 µg/mL, the MIC (E. coli (ESCCOL) strains; [13]) was no more than 0.25 µg/mL and the MIC [1] was greater than 128 µg/mL. For the same compound, the MIC [1, 14] was 8 µg/mL (≈ 14.6 µM), the MIC [1, 15] was no more than 0.25 µg/mL and the MIC [1, 16] was no more than 0.25 µg/mL. The MIC [1, 17] was no more than 0.25 µg/mL.

CO[C@@]1(NC(=O)Cc2cccs2)C(=O)N2C(C(=O)O)=C(COC(N)=O)CS[C@@H]21 [Cefoxitin] gave a Cefoxitin MIC (E. coli strains [2]; E. coli strain 1 of Table 18 (WT)) of no more than 4 µg/mL, a Cefoxitin MIC (E. coli strains [2]; E. coli strain 2 of Table 18 (OSBL, C-plasmid)) greater than 32 µg/mL and a Cefoxitin MIC (E. coli strains [2]; E. coli strain 3 of Table 18 (OSBL, C-chromo)) greater than 32 µg/mL. The Cefoxitin MIC (E. coli strains [2]; E. coli strain 4 of Table 18 (OSBL)) was 32 µg/mL, the Cefoxitin MIC (E. coli strains [2]; E. coli strain 5 of Table 18 (ESBL, C-plasmid)) was greater than 32 µg/mL and the “Cefoxitin MIC” value (E. coli strains [2]; E. coli strain 6 of Table 18 (ESBL, C-chromo)) was “=32”. The “Cefoxitin MIC” value (E. coli strains [2]; E. coli strain 7 of Table 18 (ESBL)) was “=8”, the Cefoxitin MIC (E. coli strains [2]; E. coli strain 8 of Table 18 (C-chromo)) was greater than 32 µg/mL and the Cefoxitin MIC (E. coli strains [2]; E. coli strain 9 of Table 18 (Carbapenemase)) was greater than 32 µg/mL. It also gave a Cefoxitin MIC (E. coli strains [2]; E. coli strain 10 of Table 18 (C-plasmid)) greater than 32 µg/mL and a Cefoxitin MIC (E. coli strains [2]; E. coli strain 11 of Table 18 (OSBL, C-plasmid)) greater than 32 µg/mL.

With C[C@@H](O)[C@H]1C(=O)N2C(C(=O)O)=C(SCCN=CN)C[C@H]12 [Imipenem] the Imipenem MIC ([3]; KLEPENEP strain 5 of Table 16 (WT)) was no more than 2 µg/mL, the “Imipenem MIC” value ([3]; KLEPNEP strain 1 of Table 14 (ESBL, MBL)) was “= 4” and the Imipenem MIC ([3]; KLEPNEP strain 1 of Table 16 (ESBL, MBL)) was 4 µg/mL. For the same compound, the Imipenem MIC ([3]; KLEPNEP strain 2 of Table 14 (WT)) was no more than 2 µg/mL, the Imipenem MIC ([3]; KLEPNEP strain 2 of Table 16 (MBL)) was greater than 16 µg/mL and the Imipenem MIC ([3]; KLEPNEP strain 3 of Table 14 (OSBL, Carbapenemase)) was greater than 16 µg/mL. For the same compound, the “Imipenem MIC” value ([3]; KLEPNEP strain 3 of Table 16 (ESBL, Carbapenemase)) was “= 8”, the Imipenem MIC ([3]; KLEPNEP strain 4 of Table 14 (ESBL, C-plasmid)) was no more than 2 µg/mL and the Imipenem MIC ([3]; KLEPNEP strain 4 of Table 16 (ESBL, C-plasmid)) was no more than 2 µg/mL. For the same compound, the “Imipenem MIC” value ([3]; Klebsiella pneumoniae strain 1 of Table 10 (C-plasmid)) was “<=2 μg/ml”, the “Imipenem MIC” value ([3]; Klebsiella pneumoniae strain 6 of Table 10 (ESBL, C-plasmid)) was “<=2 μg/ml” and the “Imipenem MIC” value ([3]; Klebsiella pneumoniae strain 8 of Table 10 (OSBL, C-plasmid)) was “<=2 μg/ml”. For the same compound, the “Imipenem MIC” value ([3]; Klebsiella pneumoniae strain 11 of Table 10 (OSBL, C-plasmid)) was “<=2 μg/ml”, the “Imipenem MIC” value ([3]; Klebsiella pneumoniae strain 14 of Table 10 (ESBL, C-plasmid)) was “<=2 μg/ml” and the MIC ([3]; Klebsiella pneumoniae strain 2 of Table 10 (ESBL, MBL)) was 4 µg/mL (≈ 13.4 µM). The MIC ([3]; Klebsiella pneumoniae strain 3 of Table 10 (ESBL, C)) was no more than 2 µg/mL, the MIC ([3]; Klebsiella pneumoniae strain 4 of Table 10 (ESBL, Carb (KPC))) was 8 µg/mL (≈ 26.7 µM) and the MIC ([3]; Klebsiella pneumoniae strain 7 of Table 10 (WT)) was no more than 2 µg/mL. For the same compound, the MIC ([3]; Klebsiella pneumoniae strain 9 of Table 10 (OSBL, carb)) was greater than 16 µg/mL, the MIC ([3]; Klebsiella pneumoniae strain 10 of Table 10 (WT)) was no more than 2 µg/mL and the MIC ([3]; Klebsiella pneumoniae strain 12 of Table 10 (MBL)) was greater than 16 µg/mL. It also gave an MIC ([3]; Klebsiella pneumoniae strain 13 of Table 10 (ESBL, MBL)) of 4 µg/mL (≈ 13.4 µM), an MIC ([3]; Klebsiella pneumoniae strain 15 of Table 10 (Carb(KPC))) of 8 µg/mL (≈ 26.7 µM) and an MIC ([3]; Klebsiella pneumoniae strain 16 of Table 10 (ESBL, Carb(KPC))) of 8 µg/mL (≈ 26.7 µM). It also gave an Imipenem MIC [4] greater than 16 µg/mL, an MIC (E. coli strains [5]; E. coli strain 1 of Table 8 (C-chromo)) of no more than 2 µg/mL and an MIC (E. coli strains [5]; E. coli strain 3 of Table 8 (Carb (KPC))) of 16 µg/mL (≈ 53.4 µM). The MIC (E. coli strains [5]; E. coli strain 4 of Table 8 (ESBL, C-chromo)) was no more than 2 µg/mL, the MIC (E. coli strains [5]; E. coli strain 5 of Table 8 (IRT, C-chromo)) was no more than 2 µg/mL and the MIC (E. coli strains [5]; E. coli strain 6 of Table 8 (OSBL, Carb)) was 8 µg/mL (≈ 26.7 µM). For the same compound, the MIC (E. coli strains [5]; E. coli strain 8 of Table 8 (WT)) was no more than 0.25 µg/mL, the MIC (E. coli strains [5]; E. coli strain 9 of Table 8 (WT)) was no more than 2 µg/mL and the MIC (E. coli strains [5]; E. coli strain 10 of Table 8 (OSBL, C-chromo)) was no more than 2 µg/mL. The MIC (E. coli strains [5]; E. coli strain 11 of Table 8 (ESBL, C)) was no more than 2 µg/mL, the Imipenem MIC ([6]; Klebsiella oxytoca strain 1 of Table 12 (K1-high)) was no more than 2 µg/mL and the Imipenem MIC ([6]; Klebsiella oxytoca strain 2 of Table 12 (OSBL, K1-high)) was no more than 2 µg/mL. For the same compound, the Imipenem MIC ([6]; Klebsiella oxytoca strain 3 of Table 12 (OSBL, K1-high, Carb)) was greater than 16 µg/mL and the Imipenem MIC ([6]; Klebsiella oxytoca strain 4 of Table 12 (WT)) was no more than 2 µg/mL.

O=C(Cc1cccs1)N[C@@H]1C(=O)N2C(C(=O)O)=C(/C=C/c3ccc([N+](=O)[O-])cc3[N+](=O)[O-])CS[C@H]12 [NCF, 3-[2,4-dinitrostyryl]-7-(2-thienylacetamido]3-cephem-4-carobxylic acid] was tested, and the “NCF activity (maximum nitrocefin hydrolysis rate within 10 hrs)” value (“NCF activity” below) ([7]; Klebsiella pneumoniae sample 9, intracellular beta-lactamase +) was 1.3, the “NCF activity” value ([7]; Klebsiella pneumoniae sample 10, intracellular beta-lactamase +) was 3.3 and the “NCF activity” value ([7]; Klebsiella pneumoniae sample 11, intracellular beta-lactamase +) was 3.9. The “NCF activity” value ([7]; Klebsiella pneumoniae sample 12, intracellular beta-lactamase +) was 2.6, the “NCF activity” value ([7]; Klebsiella pneumoniae sample 13, intracellular beta-lactamase +) was 6.7 and the “NCF activity” value ([7]; Klebsiella pneumoniae sample 14, intracellular beta-lactamase +) was 7.5. For the same compound, the “NCF activity” value ([7]; Klebsiella pneumoniae sample 15, intracellular beta-lactamase +) was 9.1, the “NCF activity” value ([7]; Klebsiella pneumoniae sample 16, intracellular beta-lactamase −) was 1.2 and the “NCF activity” value (E. coli strains [8]; E. coli sample 1, intracellular beta-lactamase +) was 1.9. The “NCF activity” value (E. coli strains [8]; E. coli sample 2, intracellular beta-lactamase +) was 2.1, the “NCF activity” value (E. coli strains [8]; E. coli sample 3, intracellular beta-lactamase +) was 2.3 and the “NCF activity” value (E. coli strains [8]; E. coli sample 4, intracellular beta-lactamase +) was 1.9. The “NCF activity” value (E. coli strains [8]; E. coli sample 5, intracellular beta-lactamase +) was 8.2, the “NCF activity” value (E. coli strains [8]; E. coli sample 6, intracellular beta-lactamase +) was 7.2 and the “NCF activity” value (E. coli strains [8]; E. coli sample 7, intracellular beta-lactamase +) was 6.8. For the same compound, the “NCF activity” value (E. coli strains [8]; E. coli sample 8, intracellular beta-lactamase −) was 1.7.

With O=C(O)[C@H]1/C(=C/CO)O[C@@H]2CC(=O)N21 [clavulanic acid] the “inhibition of ESBLs” value (ESBLs) was “inhibits” and the “inhibition of OSBLs” value [9] was “inhibits”.

Cc1onc(-c2ccccc2Cl)c1C(=O)N[C@@H]1C(=O)N2[C@@H]1SC(C)(C)[C@@H]2C(=O)O [cloxacillin] was tested, and the “inhibition of class A beta-lactamases” value (class A beta-lactamases) was “inhibits” and the “inhibition of class C beta-lactamases” value (class C beta-lactamases) was “inhibits”.
